These results are taken from patent US7041698B2, “Hepatitis C virus inhibitors” (Bristol-Myers Squibb Company, priority 2002, dated 2006).

Test [1] has as its target T1, HCV NS3/4A protease complex (UniProt P27958, C1454S/C1711G, species not given).
T1 construct: fused on or other part: Three-lysine solubilising tail at the C-terminus of NS4A
The experiment in a line: Recombinant HCV NS3/4A protease complex FRET peptide assay (strain not stated). The format is biochemical.

Test [2] has as its system HCV replicon in Huh7 cells. The experiment in a line: HCV replicon cell-based assay. Further details: species or system HCV strain 1B. To be noted: Hepatitis C virus, Huh-7, 96 h, HCV replicon, 4 days, read-out: EC50 range. The method in brief:
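Huh7 cells carrying a genotype 1b subgenomic replicon (NS3-NS5B, neo) treated 4 days at 37° C with compound (0.5% DMSO final). NS3 protease activity read in lysates with 10 μM FRET peptide (340/490 nm, kinetic), giving EC50. Confirmed by Taqman qRT-PCR of HCV RNA and a Renilla luciferase replicon.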
For orientation: Replicon systems follow genome replication, usually without infectious particles.

Setting [3] is: HCV NS3/4A protease enzyme assay, read-out: IC50 range.
The mark [4] stands for this setting: read-out: IC50 range, HCV NS3/4A protease enzyme assay.

By pEC50 is commonly meant the EC50 on a negative log10 scale, so that one unit is a factor of ten.

pEC50, pIC50: −log10 of the molar value. Like-named read-outs stand apart in the source and are kept apart here.

On to `C=CC1C[C@]1(NC(=O)[C@@H]1C[C@@H](OC(=O)Nc2cccc(SC)c2)CN1C(=O)[C@@H](NC(=O)OC(C)(C)C)C(C)(C)C)C(=O)NS(=O)(=O)C1CC1` (stereo partly drawn) [Compound 37, BocNH-P3(t-BuGly)-P2(Hyp(O—CO(NH—(3-methylsulfanyl-phenyl))))-P1(1R,2S VinylAcca)—CONHSO2Cyclopropane], for which the pIC50 in test [1] (setting [3]) is over 7.00. Moreover, the negative logarithm of the EC50 (pEC50) in test [2] was 5.00 to 6.00.

With `C=CC1C[C@]1(NC(=O)[C@@H]1C[C@@H](OC(=O)Nc2cc(C)ccc2Cl)CN1C(=O)[C@@H](NC(=O)OC(C)(C)C)C(C)(C)C)C(=O)NS(=O)(=O)C1CC1` (stereo partly drawn) [Compound 38, BocNH-P3(t-BuGly)-P2(Hyp(O—CO(NH—(2-chloro-5-methyl-phenyl))))-P1(1R,2S VinylAcca)—CONHSO2Cyclopropane], the pIC50 in test [1] (setting [3]) was over 7.00. In addition, in test [2], the pEC50 was 6.00 to 7.00.

With `C=CC1C[C@]1(NC(=O)[C@@H]1C[C@@H](OC(=O)N(c2ccccc2)c2ccccc2)CN1C(=O)[C@@H](NC(=O)OC(C)(C)C)C(C)(C)C)C(=O)NS(=O)(=O)C1CC1` (stereo partly drawn) [Compound 39, BocNH-P3(t-BuGly)-P2(Hyp(O—CO(N,N-diphenyl)))-P1(1R,2S VinylAcca)—CONHSO2Cyclopropane], the pIC50 in test [1] (setting [4]) was over 7.00. In addition, the pEC50 in test [2] was 6.00 to 7.00.

Regarding `C=CC1C[C@]1(NC(=O)[C@@H]1C[C@@H](OC(=O)Nc2cccc(C(=O)OC)c2)CN1C(=O)[C@@H](NC(=O)OC(C)(C)C)C(C)(C)C)C(=O)NS(=O)(=O)C1CC1` (stereo partly drawn) [Compound 40, BocNH-P3(t-BuGly)-P2(Hyp(O—CO(NH—(3-benzoic acid methyl ester))))-P1(1R,2S VinylAcca)—CONHSO2Cyclopropane], in test [1] (setting [3]), the pIC50 is over 7.00. In test [2], the pEC50 was 5.00 to 6.00.

For the compound `C=CC1C[C@]1(NC(=O)[C@@H]1C[C@@H](OC(=O)Nc2ccc(OC)cc2[N+](=O)[O-])CN1C(=O)[C@@H](NC(=O)OC(C)(C)C)C(C)(C)C)C(=O)NS(=O)(=O)C1CC1` (stereo partly drawn) [Compound 41, BocNH-P3(t-BuGly)-P2(Hyp(O—CO(NH—(4-Methoxy-2-nitro-phenyl))))-P1(1R,2S VinylAcca)—CONHSO2Cyclopropane], the pIC50 in test [1] (setting [3]) is over 7.00. For the same compound, the pEC50 in test [2] is 5.00 to 6.00.

`C=CC1C[C@]1(NC(=O)[C@@H]1C[C@@H](OC(=O)Nc2cccc(C)c2C)CN1C(=O)[C@@H](NC(=O)OC(C)(C)C)C(C)(C)C)C(=O)NS(=O)(=O)C1CC1` (stereo partly drawn) [Compound 42, BocNH-P3(t-BuGly)-P2(Hyp(O—CO(NH—(2,3-Dimethyl-phenyl))))-P1(1R,2S VinylAcca)—CONHSO2Cyclopropane]: in test [1] (setting [3]), the pIC50 was over 7.00. In test [2], the pEC50 is 5.00 to 6.00.

Take `C=CC1C[C@]1(NC(=O)[C@@H]1C[C@@H](OC(=O)N(C)C)CN1C(=O)[C@@H](NC(=O)OC(C)(C)C)C(C)(C)C)C(=O)NS(=O)(=O)C1CC1` (stereo partly drawn) [Compound 43, BocNH-P3(t-BuGly)-P2(Hyp(O—CO(N,N-dimethyl)))-P1(1R,2S VinylAcca)—CONHSO2Cyclopropane]: the pIC50 in test [1] (setting [4]) is 6.00 to 7.00. Further, in test [2], the pEC50 is under 5.00.

As to `C=CC1C[C@]1(NC(=O)[C@@H]1C[C@@H](OC(=O)N(CC)CC)CN1C(=O)[C@@H](NC(=O)OC(C)(C)C)C(C)(C)C)C(=O)NS(=O)(=O)C1CC1` (stereo partly drawn) [Compound 44, BocNH-P3(t-BuGly)-P2(Hyp(O—CO(N,N-diethyl)))-P1(1R,2S VinylAcca)—CONHSO2Cyclopropane], in test [1] (setting [4]), the pIC50 is over 7.00. Besides, the pEC50 in test [2] is 5.00 to 6.00.

Consider `C=CC1C[C@]1(NC(=O)[C@@H]1C[C@@H](OC(=O)N(C(C)C)C(C)C)CN1C(=O)[C@@H](NC(=O)OC(C)(C)C)C(C)(C)C)C(=O)NS(=O)(=O)C1CC1` (stereo partly drawn) [Compound 45, BocNH-P3(t-BuGly)-P2(Hyp(O—CO(N,N-diisopropyl)))-P1(1R,2S VinylAcca)—CONHSO2Cyclopropane], for which, in test [1] (setting [4]), the pIC50 was over 7.00. Besides, the pEC50 in test [2] is 6.00 to 7.00.

For `C=CC1C[C@]1(NC(=O)[C@@H]1C[C@@H](OC(=O)N(CCCC)CCCC)CN1C(=O)[C@@H](NC(=O)OC(C)(C)C)C(C)(C)C)C(=O)NS(=O)(=O)C1CC1` (stereo partly drawn) [Compound 46, BocNH-P3(t-BuGly)-P2(Hyp(O—CO(N,N-dibutyl)))-P1(1R,2S VinylAcca)—CONHSO2Cyclopropane], the pIC50 in test [1] (setting [3]) was 6.00 to 7.00. In addition, in test [2], the pEC50 is 5.00 to 6.00.

On to `C=CC1C[C@]1(NC(=O)[C@@H]1C[C@@H](OC(=O)Nc2cccc(C(C)=O)c2)CN1C(=O)[C@@H](NC(=O)OC(C)(C)C)C(C)(C)C)C(=O)NS(=O)(=O)C1CC1` (stereo partly drawn) [Compound 47, BocNH-P3(t-BuGly)-P2(Hyp(O—CO(NH—(3-acetyl-phenyl))))-P1(1R,2S VinylAcca)—CONHSO2Cyclopropane], for which the pIC50 in test [1] (setting [3]) is 6.00 to 7.00. Further, in test [2], the pEC50 was under 5.00.

For `C=CC1C[C@]1(NC(=O)[C@@H]1C[C@@H](OC(=O)Nc2ccccc2C(=O)OC(C)C)CN1C(=O)[C@@H](NC(=O)OC(C)(C)C)C(C)(C)C)C(=O)NS(=O)(=O)C1CC1` (stereo partly drawn) [Compound 48, BocNH-P3(t-BuGly)-P2(Hyp(O—CO(NH—(2-benzoic acid isopropyl ester))))-P1(1R,2S VinylAcca)—CONHSO2Cyclopropane], the pIC50 in test [1] (setting [3]) is over 7.00. Besides, the pEC50 in test [2] is 6.00 to 7.00.

On to `C=CC1C[C@]1(NC(=O)[C@@H]1C[C@@H](OC(=O)Nc2sc3c(c2C(=O)OCC)CCCC3)CN1C(=O)[C@@H](NC(=O)OC(C)(C)C)C(C)(C)C)C(=O)NS(=O)(=O)C1CC1` (stereo partly drawn) [Compound 49, BocNH-P3(t-BuGly)-P2(Hyp(O—CO(NH-2-(4,5,6,7-tetrahydro-benzo[b]thiophene-3-carboxylic acid ethyl ester))))-P1(1R,2S VinylAcca)—CONHSO2Cyclopropane], for which the pIC50 in test [1] (setting [3]) was 6.00 to 7.00. For the same compound, the pEC50 in test [2] is 5.00 to 6.00.

Consider `C=CC1C[C@]1(NC(=O)[C@@H]1C[C@@H](OC(=O)Nc2cc(C)cc(C)c2)CN1C(=O)[C@@H](NC(=O)OC(C)(C)C)C(C)(C)C)C(=O)NS(=O)(=O)C1CC1` (stereo partly drawn) [Compound 50, BocNH-P3(t-BuGly)-P2(Hyp(O—CO(NH—(3,5-dimethyl-phenyl))))-P1(1R,2S VinylAcca)—CONHSO2Cyclopropane], for which, in test [1] (setting [3]), the pIC50 was over 7.00. In addition, the pEC50 in test [2] was 5.00 to 6.00.

For `C=CC1C[C@]1(NC(=O)[C@@H]1C[C@@H](OC(=O)Nc2ccccc2F)CN1C(=O)[C@@H](NC(=O)OC(C)(C)C)C(C)(C)C)C(=O)NS(=O)(=O)C1CC1` (stereo partly drawn) [Compound 51, BocNH-P3(t-BuGly)-P2(Hyp(O—CO(NH—(2-fluoro-phenyl))))-P1(1R,2S VinylAcca)—CONHSO2Cyclopropane], the pIC50 in test [1] (setting [3]) was 6.00 to 7.00. Moreover, the pEC50 in test [2] was 5.00 to 6.00.

On to `C=CC1C[C@]1(NC(=O)[C@@H]1C[C@@H](OC(=O)Nc2c(F)cccc2F)CN1C(=O)[C@@H](NC(=O)OC(C)(C)C)C(C)(C)C)C(=O)NS(=O)(=O)C1CC1` (stereo partly drawn) [Compound 52, BocNH-P3(t-BuGly)-P2(Hyp(O—CO(NH—(2,6-difluorophenyl))))-P1(1R,2S VinylAcca)—CONHSO2Cyclopropane], for which the pIC50 in test [1] (setting [3]) is 6.00 to 7.00. Further, the pEC50 in test [2] was under 5.00.

As for `C=CC1C[C@]1(NC(=O)[C@@H]1C[C@@H](OC(=O)Nc2ccccc2Cl)CN1C(=O)[C@@H](NC(=O)OC(C)(C)C)C(C)(C)C)C(=O)NS(=O)(=O)C1CC1` (stereo partly drawn) [Compound 53, BocNH-P3(t-BuGly)-P2(Hyp(O—CO(NH—(2-chloro-phenyl))))-P1(1R,2S VinylAcca)—CONHSO2Cyclopropane], the pIC50 in test [1] (setting [3]) is over 7.00. The pEC50 in test [2] was 5.00 to 6.00.
